Measurements reported in patent publication US9226912B2, “Acetyltanshinone IIA (ATA) as anticancer agent” (Nanyang Technological University, priority 2011, dated 2016).

Columns and labels:
ERα in BT474 cells = molecular target: T1, ERα in BT474 cells (Homo sapiens, UniProt P03372); experiment: ERα protein level by Western blotting; format: cell-based; details: 6 μM ATA or 1 μM fulvestrant
T1 construct: endogenous in cells; host or cells: BT474 human breast cancer cells
Method: Cells were treated with 6 μM ATA or 1 μM fulvestrant for indicated times and analyzed by Western blotting.

MCF-7 cells = experiment: Combinatorial effect of ATA with paclitaxel, MTT assay; format: cell-based; details: Homo sapiens, MCF7, paclitaxel alone at 1 nM, read-out: cell growth inhibition rate
Method: The effect was determined by measuring the rates of cell growth inhibition using MTT assay. (* p<0.01, compared with cells treated with either paclitaxel alone or ATA alone).
The inventors of the present invention have shown for the first time that ATA can increase the cytotoxic effect of paclitaxel. In the tests (FIG. 16) with five concentrations of ATA at 10, 5, 2.5, 1.25, 0.625 μM and five concentrations of paclitaxel at 1000, 100, 10, 1, 0.1 nM were used.

MCF-7/HER2 cells = experiment: Growth inhibition of HER2 over-expressing cells at 72 h; format: cell-based; details: paclitaxel 1×10^−3 μM to 10 μM; ATA 0.78 μM to 6.25 μM
Excerpt: The efficacy of ATA on MCF-7 cells with over-expressed HER2 protein was investigated.

[1] = test system: GREB1 mRNA in MCF-7 cells; experiment: Real-time PCR of GREB1 mRNA level; details: 100 pM estrogen plus 6 μM compound, 24 h, normal medium
Method: In order to do so, the mRNA level of a non-ER regulated gene GAPDH was measured and used as a reference. MCF-7 cells cultured in the charcoal-stripped medium were used as a control.

ESR1 mRNA in MCF-7 cells = experiment: Real-time PCR of ESR1 mRNA level; details: 100 pM estrogen plus 6 μM compound, 24 h
Method: MCF-7 cells cultured in the charcoal-stripped medium were used as control for the 0 h sample.

ROS in MDA-MB-435 cells = experiment: ROS generation and its prevention by PG; format: cell-based, human; details: pre-treating cells with 20 μM PG
Method: (A) PG prevented ATA-induced cell death. Three concentrations of PG were tested for their protective effects on ATA-induced cell death. The cell viability was measured by SRB assay. (* p<0.01). (B) PG protected ROS generation caused by ATA treatment. […] All the experiments were performed at least three times. The results presented in this figure are the average of three experiments. Error bar represents standard deviation. Scale bar=20 μm.
(§1) It was further tested, whether PG could prevent ROS generation after ATA treatment.

[2] = test system: Bax and cytochrome c in MDA-MB-435 cells; experiment: Bax translocation and cytochrome c release, cell fractionation Western blot and immunofluorescence; format: cell-based, human; details: 20 μM PG, 5 μM ATA, 24 h
Method: The concentration of ATA and PG were 5 μM and 20 μM, respectively. […] Scale bar=10 μm.
The value of CY/MT represents the ratio of integrated band intensity of cytosol fraction (CY) over corresponding integrated band intensity of mitochondrial fraction (MT). The ratio was normalized by the control group. Two proteins were used as internal markers to judge the quality of cell fractionation experiment: Cox IV for mitochondria and β-tubulin mainly for cytosol.
The subcellular localization changes of Bax and cytochrome c during ATA-induced apoptosis were first examined using immunofluorescence staining.
as §1

HeLa cells = experiment: ATA-induced cell death by cell counting under a microscope; format: cell-based; details: 2 μM z-VAD-fmk pre-treatment 2 h, then 10 or 20 μM ATA, 24 h and 48 h
Method: HeLa cells were treated with 10 μM ATA for 12, 24, 36, and 48 h. The β-tubulin protein was probed as a loading control. […] HeLa cells were pre-treated with 2 μM pan-caspase inhibitor (z-VAD-fmk) for 2 h before ATA addition. Then 10 μM or 20 μM ATA were added. After 24 h and 48 h treatment, the number of died cells was counted under a microscope. (* p<0.01, compared with cells treated with ATA only). Control: cells without any treatment.
Overexpression of Bcl-2 inhibited ATA-induced cell death. HeLa cells transfected with either yellow fluorescent protein (YFP) (vector control) or YFP-Bcl-2 (Bcl-2) were treated with ATA at 10 or 20 μM. The percentage of cell death from YFP-positive cells was determined by cell counting under a fluorescence microscope. (* p<0.01, compared with vector control groups).
The inventors of the present invention have shown for the first time that ATA can activate the apoptotic pathway in cancer cells. […]
HeLa cells transfected with YFP-Bcl-2 or YFP only were treated with 10 μM or 20 μM ATA. After 24 h or 48 h treatment, the percentage of cell death in each sample was calculated by counting the numbers of fluorescence-positive cells either live (attached with a normal cell morphology) or dead (detached with a shrunk morphology) under a fluorescence microscope. […]

T1 sequence (P03372 whole entry): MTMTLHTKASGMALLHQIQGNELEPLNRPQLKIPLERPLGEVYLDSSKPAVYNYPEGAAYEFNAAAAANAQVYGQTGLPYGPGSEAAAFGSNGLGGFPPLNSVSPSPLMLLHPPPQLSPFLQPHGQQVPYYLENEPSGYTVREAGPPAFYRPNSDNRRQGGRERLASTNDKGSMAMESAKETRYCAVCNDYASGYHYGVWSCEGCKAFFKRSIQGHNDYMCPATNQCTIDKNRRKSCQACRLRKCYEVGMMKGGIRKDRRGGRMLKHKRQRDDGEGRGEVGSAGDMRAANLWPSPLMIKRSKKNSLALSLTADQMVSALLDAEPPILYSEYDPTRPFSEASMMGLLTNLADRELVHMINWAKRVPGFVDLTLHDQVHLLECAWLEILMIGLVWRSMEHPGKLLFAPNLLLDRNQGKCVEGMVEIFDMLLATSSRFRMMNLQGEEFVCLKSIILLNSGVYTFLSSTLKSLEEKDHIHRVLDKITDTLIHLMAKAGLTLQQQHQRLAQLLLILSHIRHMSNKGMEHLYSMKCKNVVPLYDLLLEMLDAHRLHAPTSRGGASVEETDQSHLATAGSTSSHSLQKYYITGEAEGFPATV

For `C[C@]12CC[C@@H]3c4ccc(O)cc4C[C@@H](CCCCCCCCC[S+]([O-])CCCC(F)(F)C(F)(F)F)[C@H]3[C@@H]1CC[C@@H]2O` (stereo partly drawn) [Fulvestrant, fulvestrant, reference compound], which “level of ERα” value (ERα in BT474 cells) is on record?
Its value is “only reduced ERα”.

`CC(=O)O[C@H]1C(=O)[C@@]2(C)[C@H]([C@H](OC(=O)c3ccccc3)[C@]3(O)C[C@H](OC(=O)[C@H](O)[C@@H](NC(=O)c4ccccc4)c4ccccc4)C(C)=C1C3(C)C)[C@]1(OC(C)=O)CO[C@@H]1C[C@@H]2O` [paclitaxel, reference compound] was tested. Which inhibition at 0.001 µM (MCF-7 cells) did it give?
The inhibition at 0.001 µM was roughly 40%.

What about the “sensitivity of MCF-7/HER2 cells compared with MCF-7 cells” value (MCF-7/HER2 cells) of the same molecule?
The value was “more resistance to paclitaxel than MCF-7 cells”.

With `CC/C(=C(\c1ccccc1)c1ccc(OCCN(C)C)cc1)c1ccccc1` [tamoxifen, reference compound] as the molecule, how does the “GREB1 level of the control” value [1] read?
The value was “comparable”.

And the “level of ESR1 mRNA over control” value (ESR1 mRNA in MCF-7 cells; charcoal-stripped medium)?
The value was “about 70%”.

What about the “level of ESR1 mRNA over control” value (ESR1 mRNA in MCF-7 cells; normal medium) of the same molecule?
Its value is “only slightly decreased”.

With `CCCOC(=O)c1cc(O)c(O)c(O)c1` [PG, propyl gallate, reference compound] as the molecule, how does the “effect on ATA-induced ROS level increase” value (ROS in MDA-MB-435 cells) read?
The value was “completely prevented”.

And the “effect on Bax translocation and cytochrome c release in ATA-treated cells” value [2]?
The value was “could effectively prevent”.

With z-VAD-fmk [reference compound] as the molecule, how does the “effect on ATA-induced cell death” value (HeLa cells) read?
Its value is “could be inhibited”.
